Reference: ChEMBL document CHEMBL2434925, “Synthesis and antiviral activity of a novel class of (5-oxazolyl)phenyl amines” (Eur J Med Chem, 2013)

system: not listed separately; experiment: Cytotoxicity against human Huh7.5 cells after 96 hrs by MTT assay; assay type: cell-based, Huh-7; details: not given

Row | SMILES | CC50 at 96 h
1 | COc1cc(NCc2ccco2)ccc1-c1cnco1 | 80 µM
2 | COc1ccccc1/C=C/CNc1ccc(-c2cnco2)c(OC)c1 | 29.2 µM
3 | COc1cc(NCc2ccc(C)o2)ccc1-c1cnco1 | 63.4 µM
4 | COc1cc(NCc2scnc2C)ccc1-c1cnco1 | 58.5 µM
5 | COc1cc(NCc2ccc(C)s2)ccc1-c1cnco1 | 34.4 µM
6 | COc1cc(NCc2cccnc2Cl)ccc1-c1cnco1 | 40.5 µM
7 | COc1ccc(-c2cnco2)cc1NCc1ccc(C)s1 | 52.9 µM
8 | COc1ccc(CNc2ccc(-c3cnco3)c(OC)c2)cc1 | 41.3 µM
9 | COc1cc(NCc2cc(OC)c(OC)c(OC)c2)ccc1-c1cnco1 | 36.6 µM
10 | COc1cc(NCc2ccncc2)ccc1-c1cnco1 | 72.2 µM
11 | COc1cc(NCc2ccc(C(=O)O)s2)ccc1-c1cnco1 | > 100 µM
12 | COc1cc(NC/C=C/c2ccccc2)ccc1-c1cnco1 | > 100 µM
13 | COc1cc(NCc2ccsc2)ccc1-c1cnco1 | 63.1 µM
14 | COc1cc(/N=C/c2ccc([N+](=O)[O-])o2)ccc1-c1cnco1 | 20.5 µM
15 | COc1cc(NCc2c[nH]c3ccccc23)ccc1-c1cnco1 | 56.1 µM
16 | COc1cc(NCc2cccc(C)n2)ccc1-c1cnco1 | 62.7 µM
17 | COc1cc(/N=C/C=C/c2ccccc2)ccc1-c1cnco1 | > 100 µM

system: Hepatitis C virus; experiment: Antiviral activity against HCV expressing pFL-J6/JFH/JC1 infected in human Huh7.5 cells assessed as inhibition of viral RNA synthesis after 96 hrs by one-step RT-PCR analysis; assay type: functional, organism-based, Hepacivirus hominis; details: Huh-7, 96 h

Row | SMILES | IC50
18 | COc1cc(NCc2ccco2)ccc1-c1cnco1 | 1.06 µM
19 | COc1ccccc1/C=C/CNc1ccc(-c2cnco2)c(OC)c1 | 2.3 µM
20 | COc1cc(NCc2ccc(C)o2)ccc1-c1cnco1 | 1.01 µM
21 | COc1cc(NCc2scnc2C)ccc1-c1cnco1 | 6.88 µM
22 | COc1cc(NCc2ccc(C)s2)ccc1-c1cnco1 | 2.05 µM
23 | COc1cc(NCc2cccnc2Cl)ccc1-c1cnco1 | 1.8 µM
24 | COc1ccc(-c2cnco2)cc1NCc1ccc(C)s1 | 2.42 µM
25 | COc1ccc(CNc2ccc(-c3cnco3)c(OC)c2)cc1 | 1.4 µM
26 | COc1cc(NCc2cc(OC)c(OC)c(OC)c2)ccc1-c1cnco1 | > 3.71 µM
27 | COc1cc(NCc2ccncc2)ccc1-c1cnco1 | 5.71 µM
28 | COc1cc(NCc2ccc(C(=O)O)s2)ccc1-c1cnco1 | 22.4 µM
29 | COc1cc(NC/C=C/c2ccccc2)ccc1-c1cnco1 | 2.38 µM
30 | COc1cc(NCc2ccsc2)ccc1-c1cnco1 | 1.25 µM
31 | COc1cc(/N=C/c2ccc([N+](=O)[O-])o2)ccc1-c1cnco1 | 1.24 µM
32 | COc1cc(NCc2c[nH]c3ccccc23)ccc1-c1cnco1 | 1.62 µM
33 | COc1cc(NCc2cccc(C)n2)ccc1-c1cnco1 | 2.4 µM
34 | COc1cc(/N=C/C=C/c2ccccc2)ccc1-c1cnco1 | 6.99 µM

system: not listed separately; experiment: Selectivity index, ratio of CC50 for human Huh7.5 cells to IC50 for HCV expressing pFL-J6/JFH/JC1; assay type: functional, Huh-7; details: not given

Row | SMILES | Ratio CC50/IC50
35 | COc1cc(NCc2ccco2)ccc1-c1cnco1 | 75.4
36 | COc1ccccc1/C=C/CNc1ccc(-c2cnco2)c(OC)c1 | 12.7
37 | COc1cc(NCc2ccc(C)o2)ccc1-c1cnco1 | 62.8
38 | COc1cc(NCc2scnc2C)ccc1-c1cnco1 | 8.5
39 | COc1cc(NCc2ccc(C)s2)ccc1-c1cnco1 | 16.8
40 | COc1cc(NCc2cccnc2Cl)ccc1-c1cnco1 | 22.5
41 | COc1ccc(-c2cnco2)cc1NCc1ccc(C)s1 | 21.9
42 | COc1ccc(CNc2ccc(-c3cnco3)c(OC)c2)cc1 | 29.5
43 | COc1cc(NCc2cc(OC)c(OC)c(OC)c2)ccc1-c1cnco1 | <9.9
44 | COc1cc(NCc2ccncc2)ccc1-c1cnco1 | 12.7
45 | COc1cc(NCc2ccc(C(=O)O)s2)ccc1-c1cnco1 | >4.5
46 | COc1cc(NC/C=C/c2ccccc2)ccc1-c1cnco1 | >42
47 | COc1cc(NCc2ccsc2)ccc1-c1cnco1 | 50.5
48 | COc1cc(/N=C/c2ccc([N+](=O)[O-])o2)ccc1-c1cnco1 | 16.5
49 | COc1cc(NCc2c[nH]c3ccccc23)ccc1-c1cnco1 | 34.6
50 | COc1cc(NCc2cccc(C)n2)ccc1-c1cnco1 | 26.1
51 | COc1cc(/N=C/C=C/c2ccccc2)ccc1-c1cnco1 | >14.3

system: not listed separately; experiment: Cytotoxicity against african green monkey Vero cells after 96 hrs by MTT assay; assay type: cell-based; details: chlorocebus sabaeus

Row | SMILES | CC50 at 96 h
52 | NC(=O)c1ncn([C@@H]2O[C@H](CO)[C@@H](O)[C@H]2O)n1 [RIBAVIRIN] | 8190 µM
53 | COc1cc(NCc2ccco2)ccc1-c1cnco1 | 57 µM
54 | COc1ccccc1/C=C/CNc1ccc(-c2cnco2)c(OC)c1 | 12.7 µM
55 | COc1cc(NCc2ccc(C)o2)ccc1-c1cnco1 | 45.1 µM
56 | COc1cc(NCc2scnc2C)ccc1-c1cnco1 | 73.7 µM
57 | COc1cc(NCc2ccc(C)s2)ccc1-c1cnco1 | 24.7 µM
58 | COc1cc(NCc2cccnc2Cl)ccc1-c1cnco1 | 40.6 µM
59 | COc1ccc(-c2cnco2)cc1NCc1ccc(C)s1 | 42.7 µM
60 | COc1ccc(CNc2ccc(-c3cnco3)c(OC)c2)cc1 | 23.9 µM
61 | COc1cc(NCc2cc(OC)c(OC)c(OC)c2)ccc1-c1cnco1 | 41.6 µM
62 | COc1cc(NCc2ccncc2)ccc1-c1cnco1 | 342 µM
63 | COc1cc(NCc2ccc(C(=O)O)s2)ccc1-c1cnco1 | 350 µM
64 | COc1cc(NC/C=C/c2ccccc2)ccc1-c1cnco1 | 72.5 µM
65 | COc1cc(NCc2ccsc2)ccc1-c1cnco1 | 181 µM
66 | COc1cc(/N=C/c2ccc([N+](=O)[O-])o2)ccc1-c1cnco1 | 13.7 µM
67 | COc1cc(NCc2c[nH]c3ccccc23)ccc1-c1cnco1 | 48.3 µM
68 | COc1cc(NCc2cccc(C)n2)ccc1-c1cnco1 | 75.2 µM
69 | COc1cc(/N=C/C=C/c2ccccc2)ccc1-c1cnco1 | 105 µM

system: Coxsackievirus B3; experiment: Antiviral activity against Coxsackie B3 virus Nancy in african green monkey Vero cells assessed as inhibition virus-induced cytopathic effect after 48 hrs; assay type: functional, organism-based; details: Enterovirus B

Row | SMILES | IC50
70 | NC(=O)c1ncn([C@@H]2O[C@H](CO)[C@@H](O)[C@H]2O)n1 [RIBAVIRIN] | 1580 µM
71 | COc1cc(NCc2ccco2)ccc1-c1cnco1 | 7.6 µM
72 | COc1ccccc1/C=C/CNc1ccc(-c2cnco2)c(OC)c1 | 3.15 µM
73 | COc1cc(NCc2ccc(C)o2)ccc1-c1cnco1 | 5.01 µM
74 | COc1cc(NCc2scnc2C)ccc1-c1cnco1 | 5.67 µM
75 | COc1cc(NCc2ccc(C)s2)ccc1-c1cnco1 | 3.52 µM
76 | COc1cc(NCc2cccnc2Cl)ccc1-c1cnco1 | 4.21 µM
77 | COc1ccc(-c2cnco2)cc1NCc1ccc(C)s1 | 8.22 µM
78 | COc1ccc(CNc2ccc(-c3cnco3)c(OC)c2)cc1 | 0.87 µM
79 | COc1cc(NCc2cc(OC)c(OC)c(OC)c2)ccc1-c1cnco1 | 11.6 µM
80 | COc1cc(NCc2ccncc2)ccc1-c1cnco1 | 26.3 µM
81 | COc1cc(NCc2ccc(C(=O)O)s2)ccc1-c1cnco1 | 67.3 µM
82 | COc1cc(NC/C=C/c2ccccc2)ccc1-c1cnco1 | 3.52 µM
83 | COc1cc(NCc2ccsc2)ccc1-c1cnco1 | 3.66 µM
84 | COc1cc(/N=C/c2ccc([N+](=O)[O-])o2)ccc1-c1cnco1 | > 7.88 µM
85 | COc1cc(NCc2c[nH]c3ccccc23)ccc1-c1cnco1 | 9.95 µM
86 | COc1cc(NCc2cccc(C)n2)ccc1-c1cnco1 | 14.5 µM
87 | COc1cc(/N=C/C=C/c2ccccc2)ccc1-c1cnco1 | 15.1 µM

system: not listed separately; experiment: Selectivity index, ratio of CC50 for african green monkey Vero cells to IC50 for Coxsackie B3 virus Nancy; assay type: functional; details: not given

Row | SMILES | Ratio CC50/IC50
88 | NC(=O)c1ncn([C@@H]2O[C@H](CO)[C@@H](O)[C@H]2O)n1 [RIBAVIRIN] | 5.2
89 | COc1cc(NCc2ccco2)ccc1-c1cnco1 | 7.5
90 | COc1ccccc1/C=C/CNc1ccc(-c2cnco2)c(OC)c1 | 4
91 | COc1cc(NCc2ccc(C)o2)ccc1-c1cnco1 | 9
92 | COc1cc(NCc2scnc2C)ccc1-c1cnco1 | 13
93 | COc1cc(NCc2ccc(C)s2)ccc1-c1cnco1 | 7
94 | COc1cc(NCc2cccnc2Cl)ccc1-c1cnco1 | 9.7
95 | COc1ccc(-c2cnco2)cc1NCc1ccc(C)s1 | 5.2
96 | COc1ccc(CNc2ccc(-c3cnco3)c(OC)c2)cc1 | 27.5
97 | COc1cc(NCc2cc(OC)c(OC)c(OC)c2)ccc1-c1cnco1 | 3.6
98 | COc1cc(NCc2ccncc2)ccc1-c1cnco1 | 13
99 | COc1cc(NCc2ccc(C(=O)O)s2)ccc1-c1cnco1 | 5.2
100 | COc1cc(NC/C=C/c2ccccc2)ccc1-c1cnco1 | 20.6
101 | COc1cc(NCc2ccsc2)ccc1-c1cnco1 | 49.4
102 | COc1cc(NCc2c[nH]c3ccccc23)ccc1-c1cnco1 | 4.9
103 | COc1cc(NCc2cccc(C)n2)ccc1-c1cnco1 | 5.2
104 | COc1cc(/N=C/C=C/c2ccccc2)ccc1-c1cnco1 | 7

system: Coxsackievirus B6; experiment: Antiviral activity against Coxsackie B6 virus Schmitt in african green monkey Vero cells assessed as inhibition virus-induced cytopathic effect after 48 hrs; assay type: functional, organism-based; details: Enterovirus B

Row | SMILES | IC50
105 | NC(=O)c1ncn([C@@H]2O[C@H](CO)[C@@H](O)[C@H]2O)n1 [RIBAVIRIN] | 910 µM
106 | COc1cc(NCc2ccco2)ccc1-c1cnco1 | 6.96 µM
107 | COc1ccccc1/C=C/CNc1ccc(-c2cnco2)c(OC)c1 | 7.34 µM
108 | COc1cc(NCc2ccc(C)o2)ccc1-c1cnco1 | 6.78 µM
109 | COc1cc(NCc2scnc2C)ccc1-c1cnco1 | 10.6 µM
110 | COc1cc(NCc2ccc(C)s2)ccc1-c1cnco1 | 2.1 µM
111 | COc1cc(NCc2cccnc2Cl)ccc1-c1cnco1 | 3.33 µM
112 | COc1ccc(-c2cnco2)cc1NCc1ccc(C)s1 | 12.8 µM
113 | COc1ccc(CNc2ccc(-c3cnco3)c(OC)c2)cc1 | 3.42 µM
114 | COc1cc(NCc2cc(OC)c(OC)c(OC)c2)ccc1-c1cnco1 | 11.6 µM
115 | COc1cc(NCc2ccncc2)ccc1-c1cnco1 | 15.2 µM
116 | COc1cc(NCc2ccc(C(=O)O)s2)ccc1-c1cnco1 | 56 µM
117 | COc1cc(NC/C=C/c2ccccc2)ccc1-c1cnco1 | 4.67 µM
118 | COc1cc(NCc2ccsc2)ccc1-c1cnco1 | 4.65 µM
119 | COc1cc(/N=C/c2ccc([N+](=O)[O-])o2)ccc1-c1cnco1 | 4.88 µM
120 | COc1cc(NCc2c[nH]c3ccccc23)ccc1-c1cnco1 | 23.2 µM
121 | COc1cc(NCc2cccc(C)n2)ccc1-c1cnco1 | 6.36 µM
122 | COc1cc(/N=C/C=C/c2ccccc2)ccc1-c1cnco1 | 18.9 µM

system: not listed separately; experiment: Selectivity index, ratio of CC50 for african green monkey Vero cells to IC50 for Coxsackie B3 virus Schmitt; assay type: functional; details: not given

Row | SMILES | Ratio CC50/IC50
123 | COc1cc(NCc2ccco2)ccc1-c1cnco1 | 8.2
124 | COc1ccccc1/C=C/CNc1ccc(-c2cnco2)c(OC)c1 | 1.7
125 | COc1cc(NCc2ccc(C)o2)ccc1-c1cnco1 | 6.7
126 | COc1cc(NCc2scnc2C)ccc1-c1cnco1 | 7
127 | COc1cc(NCc2ccc(C)s2)ccc1-c1cnco1 | 11.8
128 | COc1cc(NCc2cccnc2Cl)ccc1-c1cnco1 | 12.2
129 | COc1ccc(-c2cnco2)cc1NCc1ccc(C)s1 | 3.4
130 | COc1ccc(CNc2ccc(-c3cnco3)c(OC)c2)cc1 | 7
131 | COc1cc(NCc2cc(OC)c(OC)c(OC)c2)ccc1-c1cnco1 | 3.6
132 | COc1cc(NCc2ccncc2)ccc1-c1cnco1 | 22.5
133 | COc1cc(NCc2ccc(C(=O)O)s2)ccc1-c1cnco1 | 6.2
134 | COc1cc(NC/C=C/c2ccccc2)ccc1-c1cnco1 | 15.5
135 | COc1cc(NCc2ccsc2)ccc1-c1cnco1 | 38.9
136 | COc1cc(/N=C/c2ccc([N+](=O)[O-])o2)ccc1-c1cnco1 | 2.8
137 | COc1cc(NCc2c[nH]c3ccccc23)ccc1-c1cnco1 | 2.1
138 | COc1cc(NCc2cccc(C)n2)ccc1-c1cnco1 | 11.8
139 | COc1cc(/N=C/C=C/c2ccccc2)ccc1-c1cnco1 | 5.6
